Data published in US20260306641A1, “HELICASE DEGRADERS” (priority 2023, published 2026).

Assays:
HaCaT cells = test: BrdU labeling of DNA replication in synchronized HaCaT cells; type: cell-based, human; conditions: for DNA replication (BrdU), early G1 treatment: added at time 0, 15 μM; for DNA replication (BrdU), early S-phase treatment: treated at 18 hrs, analyzed 3 hrs later, CA1/novobiocin 15 μM, etoposide 5 μM
Protocol: Verification of synchronization and determination of drug effects was performed by measuring the incorporation of bromo-deoxyuridine (BrdU) into replicating foci within nuclei. At times indicated, cells were pulse-labeled with 15 μM BrdU for 30 min, fixed with 4% paraformaldehyde, and analyzed by standard immunofluorescent techniques(40,51) with an anti-BrdU monoclonal antibody (Roche, clone no. BMC9318, RRID:AB_2313622). The average counts of three fields of 100 or more cells were used to determine the percentages of BrdU-labeled nuclei, +/−1 s.d.

[1] = system: MCM/CMG and replisome proteins in HaCaT cells; test: Immunoblots of chromatin-bound or total proteins, synchronized HaCaT cells; type: cell-based, human
[2] = system: solid tumor cell lines (NCI-60 set); conditions: cited from earlier work
[3] = system: T1, human CMG helicase (hCMG); test: hCMG ATPase activity, FP ADP^2 Transcreener assay; type: biochemical; conditions: primary FP ATPase assay
T1 construct: made in house; host or cells: High Five insect cells, baculovirus (11 viruses co-infected)
T1 sequence (P49736 whole entry): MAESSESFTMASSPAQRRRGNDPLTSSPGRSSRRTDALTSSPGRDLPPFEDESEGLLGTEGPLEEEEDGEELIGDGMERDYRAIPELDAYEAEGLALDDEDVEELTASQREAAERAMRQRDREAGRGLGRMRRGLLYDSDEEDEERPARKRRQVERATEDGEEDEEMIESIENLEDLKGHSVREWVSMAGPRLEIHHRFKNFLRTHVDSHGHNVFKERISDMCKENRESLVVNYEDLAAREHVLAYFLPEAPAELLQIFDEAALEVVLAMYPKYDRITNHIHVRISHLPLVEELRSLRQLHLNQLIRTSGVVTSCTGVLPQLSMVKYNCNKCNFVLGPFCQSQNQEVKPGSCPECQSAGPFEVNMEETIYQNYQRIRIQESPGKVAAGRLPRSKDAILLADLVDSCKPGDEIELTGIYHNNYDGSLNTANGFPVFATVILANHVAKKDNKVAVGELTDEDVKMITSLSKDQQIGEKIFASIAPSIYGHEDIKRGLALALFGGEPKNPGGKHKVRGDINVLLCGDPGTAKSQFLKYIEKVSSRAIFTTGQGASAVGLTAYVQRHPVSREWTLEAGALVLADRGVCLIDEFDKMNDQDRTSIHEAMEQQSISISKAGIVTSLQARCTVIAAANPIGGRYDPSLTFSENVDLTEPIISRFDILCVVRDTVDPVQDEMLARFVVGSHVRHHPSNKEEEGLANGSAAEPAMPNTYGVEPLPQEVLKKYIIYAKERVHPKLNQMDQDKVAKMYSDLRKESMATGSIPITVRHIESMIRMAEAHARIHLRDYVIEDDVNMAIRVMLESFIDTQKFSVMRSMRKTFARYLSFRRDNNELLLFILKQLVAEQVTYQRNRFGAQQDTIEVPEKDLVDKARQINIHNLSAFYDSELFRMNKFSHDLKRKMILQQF
T1 sequence (P25205 whole entry, further chain): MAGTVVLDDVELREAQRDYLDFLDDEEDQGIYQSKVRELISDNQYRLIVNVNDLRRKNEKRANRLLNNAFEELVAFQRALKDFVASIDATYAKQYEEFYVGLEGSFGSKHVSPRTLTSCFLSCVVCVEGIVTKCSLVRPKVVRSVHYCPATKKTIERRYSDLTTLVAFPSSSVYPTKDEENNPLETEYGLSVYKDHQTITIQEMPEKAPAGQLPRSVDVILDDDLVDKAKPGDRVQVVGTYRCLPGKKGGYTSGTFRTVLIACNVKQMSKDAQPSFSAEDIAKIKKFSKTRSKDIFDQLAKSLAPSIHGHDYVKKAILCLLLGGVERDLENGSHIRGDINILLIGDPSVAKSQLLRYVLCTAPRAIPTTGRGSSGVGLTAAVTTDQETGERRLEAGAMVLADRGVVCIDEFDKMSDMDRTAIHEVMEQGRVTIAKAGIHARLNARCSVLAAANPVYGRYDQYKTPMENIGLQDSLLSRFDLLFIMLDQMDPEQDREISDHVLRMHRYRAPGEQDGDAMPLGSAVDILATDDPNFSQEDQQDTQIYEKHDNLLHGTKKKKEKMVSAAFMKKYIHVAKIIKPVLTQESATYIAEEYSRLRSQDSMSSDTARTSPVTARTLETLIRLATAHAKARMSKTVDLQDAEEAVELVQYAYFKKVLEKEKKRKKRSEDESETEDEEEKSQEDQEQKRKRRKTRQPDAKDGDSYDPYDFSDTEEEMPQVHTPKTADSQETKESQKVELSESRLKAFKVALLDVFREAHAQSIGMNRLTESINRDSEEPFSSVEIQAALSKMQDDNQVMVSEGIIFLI
T1 sequence (P33991 whole entry, further chain): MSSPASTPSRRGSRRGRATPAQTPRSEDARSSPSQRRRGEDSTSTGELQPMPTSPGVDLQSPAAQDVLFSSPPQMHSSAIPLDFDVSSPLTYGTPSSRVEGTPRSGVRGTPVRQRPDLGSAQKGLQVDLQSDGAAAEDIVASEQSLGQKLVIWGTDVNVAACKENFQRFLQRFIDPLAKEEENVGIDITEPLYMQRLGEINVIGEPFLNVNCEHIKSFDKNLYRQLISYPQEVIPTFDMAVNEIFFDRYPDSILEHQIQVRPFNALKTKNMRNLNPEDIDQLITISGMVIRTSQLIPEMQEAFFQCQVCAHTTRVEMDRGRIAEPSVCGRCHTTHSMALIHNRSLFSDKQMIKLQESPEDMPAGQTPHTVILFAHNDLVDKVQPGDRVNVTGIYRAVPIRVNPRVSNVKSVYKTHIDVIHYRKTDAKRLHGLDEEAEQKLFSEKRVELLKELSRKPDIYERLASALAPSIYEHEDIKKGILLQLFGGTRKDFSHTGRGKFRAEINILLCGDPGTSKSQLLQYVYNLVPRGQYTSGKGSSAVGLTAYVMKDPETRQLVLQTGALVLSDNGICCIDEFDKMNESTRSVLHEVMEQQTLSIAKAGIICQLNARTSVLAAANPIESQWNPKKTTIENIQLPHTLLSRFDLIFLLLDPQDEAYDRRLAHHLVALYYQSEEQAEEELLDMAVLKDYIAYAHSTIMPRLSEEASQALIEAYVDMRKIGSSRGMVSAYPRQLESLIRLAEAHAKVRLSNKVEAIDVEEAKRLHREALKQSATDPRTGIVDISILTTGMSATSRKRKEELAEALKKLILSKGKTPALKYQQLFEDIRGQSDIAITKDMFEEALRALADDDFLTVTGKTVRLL
T1 sequence (P33992 whole entry, further chain): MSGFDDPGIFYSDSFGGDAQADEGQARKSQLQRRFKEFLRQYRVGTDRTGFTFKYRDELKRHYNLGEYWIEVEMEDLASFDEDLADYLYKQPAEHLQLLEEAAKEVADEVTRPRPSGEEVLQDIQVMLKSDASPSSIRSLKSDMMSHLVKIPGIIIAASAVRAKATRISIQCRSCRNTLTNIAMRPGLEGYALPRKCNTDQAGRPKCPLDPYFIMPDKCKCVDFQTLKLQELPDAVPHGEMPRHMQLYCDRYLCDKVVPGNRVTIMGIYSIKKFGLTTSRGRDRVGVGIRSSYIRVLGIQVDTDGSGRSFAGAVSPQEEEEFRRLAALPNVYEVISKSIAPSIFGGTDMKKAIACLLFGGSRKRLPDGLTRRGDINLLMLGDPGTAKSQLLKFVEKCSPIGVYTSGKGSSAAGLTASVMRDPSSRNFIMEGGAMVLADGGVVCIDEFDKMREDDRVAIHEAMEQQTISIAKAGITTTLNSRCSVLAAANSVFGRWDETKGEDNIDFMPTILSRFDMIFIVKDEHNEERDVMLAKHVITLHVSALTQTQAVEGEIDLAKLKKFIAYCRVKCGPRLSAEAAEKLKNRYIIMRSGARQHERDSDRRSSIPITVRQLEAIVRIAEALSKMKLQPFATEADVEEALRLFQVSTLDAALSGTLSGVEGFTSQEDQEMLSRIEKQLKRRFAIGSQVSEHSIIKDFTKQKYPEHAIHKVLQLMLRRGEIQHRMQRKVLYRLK
T1 sequence (Q14566 whole entry, further chain): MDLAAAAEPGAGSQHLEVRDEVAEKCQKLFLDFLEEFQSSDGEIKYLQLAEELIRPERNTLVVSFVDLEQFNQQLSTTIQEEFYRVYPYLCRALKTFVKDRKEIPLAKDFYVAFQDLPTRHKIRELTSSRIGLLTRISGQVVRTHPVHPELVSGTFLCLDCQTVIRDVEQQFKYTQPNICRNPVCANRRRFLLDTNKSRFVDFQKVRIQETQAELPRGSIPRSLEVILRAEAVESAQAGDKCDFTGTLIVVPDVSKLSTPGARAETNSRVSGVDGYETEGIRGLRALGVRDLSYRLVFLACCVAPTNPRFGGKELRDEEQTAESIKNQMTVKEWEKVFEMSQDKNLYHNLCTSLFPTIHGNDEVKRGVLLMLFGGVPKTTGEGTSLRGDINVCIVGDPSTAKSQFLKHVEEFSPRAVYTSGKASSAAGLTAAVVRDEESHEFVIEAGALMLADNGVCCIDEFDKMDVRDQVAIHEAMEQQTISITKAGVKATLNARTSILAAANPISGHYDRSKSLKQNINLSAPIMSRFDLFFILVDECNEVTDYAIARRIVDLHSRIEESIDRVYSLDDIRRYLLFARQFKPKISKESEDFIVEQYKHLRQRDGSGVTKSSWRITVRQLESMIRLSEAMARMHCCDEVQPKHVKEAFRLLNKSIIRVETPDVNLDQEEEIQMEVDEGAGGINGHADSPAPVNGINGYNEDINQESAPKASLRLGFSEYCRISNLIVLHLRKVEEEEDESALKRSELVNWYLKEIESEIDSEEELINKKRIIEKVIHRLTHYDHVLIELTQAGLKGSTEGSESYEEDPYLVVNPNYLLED
T1 sequence (P33993 whole entry, further chain): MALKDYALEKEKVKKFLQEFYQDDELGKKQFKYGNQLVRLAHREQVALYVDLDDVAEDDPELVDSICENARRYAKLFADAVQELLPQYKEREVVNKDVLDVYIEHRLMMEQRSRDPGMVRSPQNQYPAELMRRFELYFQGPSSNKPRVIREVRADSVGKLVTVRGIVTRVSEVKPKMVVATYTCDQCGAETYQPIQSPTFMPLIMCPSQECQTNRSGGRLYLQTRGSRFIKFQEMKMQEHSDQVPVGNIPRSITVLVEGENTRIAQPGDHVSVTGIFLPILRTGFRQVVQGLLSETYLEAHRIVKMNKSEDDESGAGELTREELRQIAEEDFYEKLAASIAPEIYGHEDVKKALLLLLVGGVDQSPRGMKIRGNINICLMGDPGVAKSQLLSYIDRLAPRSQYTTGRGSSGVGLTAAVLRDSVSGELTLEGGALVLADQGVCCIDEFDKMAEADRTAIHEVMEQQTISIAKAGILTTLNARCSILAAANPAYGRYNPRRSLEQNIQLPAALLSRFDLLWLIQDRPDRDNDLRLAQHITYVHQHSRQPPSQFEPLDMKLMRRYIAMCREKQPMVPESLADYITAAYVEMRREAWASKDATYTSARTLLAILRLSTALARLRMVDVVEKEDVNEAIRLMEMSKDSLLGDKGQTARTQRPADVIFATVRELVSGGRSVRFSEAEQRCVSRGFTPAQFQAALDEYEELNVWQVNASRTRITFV
Protocol: The fluorescent-polarization (FP) ADP-sensing assays were performed using the Transcreener® ADP^2 FP assay kit (cat #3010-1K, Bellbrook Labs). For hCMG inhibitor screening, assays were performed at 37° C. for 1 hr in 10 μl reactions in a 384-well plate (cat. #4514, Corning) using 2 μL of hCMG (~15 fmol), 25 mM Hepes-NaOH (pH 7.5), 10 mM NaCl, 0.5 mM ATP, 10 mM magnesium acetate, 1 mM DTT, 0.1 mg/ml BSA, and DNA fork substrates. […] Selected inhibitors or samples from a chemical library were added into the reactions when conducting the screening or testing inhibitor effectiveness. The NCI Diversity Set VI chemical library was obtained from the National Cancer Institute (Bethesda, MD).
The window of sensitivity for the ADP-sensing assays is determined by setting up two 10 μL control samples without any added hCMG helicase: a Low-FP mixture (4 nM ADP Alexa Fluor-633 Tracer alone) and a High-FP mixture (4 nM ADP Alexa Fluor-633 Tracer plus patented anti-ADP^2 Antibody). The amount of ADP^2 Antibody used had to be adjusted to account for the use of 500 μM ATP in our hCMG assays, versus 10 μM ATP in enzyme reactions typically assessed with standard kits prepared by BellBrook Labs. […] This was done according to the manufacturer by performing a titration with increasing ADP^2 Antibody, fixed 4 nM ADP Alexa Fluor-633 Tracer, and 500 μM ATP to determine the ~EC80-85 for millipol (mP) changes, which determined the optimal ADP^2 Antibody concentration to use as 0.64 mg/ml (FIG. 9A). Samples are read with a Perkin Elmer Envision II plate reader with optimized Cy5 (far-red) FP-compatible mirror and cubes (cat #2100-8390, Perkin Elmer). The Low-FP sample is the least polarized and gives a low mP reading, while the High-FP sample is the most polarized and gives the highest mP reading. The difference between the Low-FP and High-FP values defines the FP assay window, which is normally in a range of 150-200 mP under ideal conditions for screening purposes. The hCMG helicase hydrolyzes ATP to ADP and decreases the mP reading within this window, with an ideal change (ΔmP) in the FP window of at least 50% to be in a readable range for inhibitor screening (as per manufacturer). Potential hCMG chemical inhibitors reverse this effect and cause the mP readings to increase.
We performed a titration with increasing and decreasing concentrations of ADP and ATP, respectively, to assess the sensitivity of the FP assay in detecting ADP production (FIG. 9B). Consistent with the stated manufacturer predictions, the assay can reliably detect 1-3% changes in ADP production (i.e., 5-15 μM ADP production) in starting concentrations of ATP of 500 μM, with a Z′ efficiency between 0.6-0.8 (determined following manufacturer protocols).
Once the hCMG enzyme reactions are complete, 10 μL of 1× Stop Solution and Detection Buffer (buffer from BellBrook Labs; containing 4 nM ADP Alexa Fluor-633 Tracer plus ADP^2 Antibody) are added to each reaction, and to the High-FP control. The Low-FP control receives 10 μL of 1× Stop Solution and Detection Buffer containing only 4 nM ADP Alexa Fluor-633 Tracer (no Antibody). Samples are incubated at 25° C. for 1 hr, then read in the plate reader. […] Plate readings from these tests of potential positive hits should be similar to that seen with the Low-FP control, or such hits may instead be false-positives.

[4] = treated at 18 hr (early S-phase)

In the case of `CO[C@@H]1[C@@H](OC(=O)c2ccc(C)[nH]2)[C@@H](O)[C@H](Oc2ccc3c(O)c(NC(=O)c4c[nH]c(C(=O)Nc5c(O)c6ccc(O[C@@H]7OC(C)(C)[C@H](OC)[C@@H](OC(=O)c8ccc(C)[nH]8)[C@H]7O)c(C)c6oc5=O)c4C)c(=O)oc3c2C)OC1(C)C` [CA1], the “DNA replication (BrdU), early G1 treatment” value (HaCaT cells) was “inhibits DNA replication”, the “DNA replication (BrdU), late-G1 treatment” value (HaCaT cells; treated at 12 hrs, assessed at 18 hrs) was “fail to undergo DNA replication” and the “DNA replication (BrdU), early S-phase treatment” value (HaCaT cells) was “effectively suppressed DNA replication”. For the same compound, the “Ctf4 and Mcm10 on chromatin” value ([1]; S-phase cells) was “reduced on chromatin”, the “DNA polymerases-a, -d and -e on chromatin” value ([1]; S-phase cells) was “caused a loss of DNA polymerases-a, -d, and -e from chromatin” and the RPA on chromatin ([1]; S-phase cells) was “reduced on chromatin”. The “GINS and Cdc45 loading onto chromatin” value ([1]; early-G1 treatment) was “blocked”, the Orc2 chromatin binding ([1]; early-G1 treatment) was “not affected” and the “MCM loading onto chromatin” value ([1]; early-G1 treatment, assessed 18 hrs) was “significantly inhibited”. For the same compound, the Cdc45 recruitment ([1]; late-G1 treatment (12 hrs)) was “not appreciably affected”, the Cdt1 dynamics ([1]; late-G1 treatment (12 hrs)) was “does not affect Cdt1 dynamics” and the “GINS recruitment to DNA-loaded MCM hexamers” value ([1]; late-G1 treatment (12 hrs)) was “inhibits GINS recruitment to DNA-loaded MCM hexamers”. The “remainder of MCM loading” value ([1]; late-G1 treatment (12 hrs)) was “only a small effect, if any”, the “Cdc6 chromatin association, polyclonal antibody” value ([1]; middle G1 exposure) was “not affected in chromatin association” and the “Cdc6 form on chromatin, monoclonal antibody” value ([1]; middle G1 exposure) was “sensitive to CA1”. For the same compound, the “Orc2 and Orc4 affinity for chromatin” value ([1]; middle G1 exposure) was “not affected”, the “Cdt1 loading on chromatin” value ([1]; treated at 6 hrs (middle G1)) was “blocks this Cdt1 loading” and the “MCMs already loaded on chromatin” value ([1]; treated at 6 hrs (middle G1)) was “does not affect MCMs already loaded”. The “increase in MCM loading at 12 hrs” value ([1]; treated at 6 hrs (middle G1)) was “inhibited by CA1”, the “total Cdt1” value ([1]; treated at 6 hrs (middle G1)) was “promotes loss of total Cdt1” and the “GINS and Cdc45 chromatin association” value [1, 4] was “notably suppressed”. For the same compound, the “total protein levels of Psf3 and Cdc45” value [1, 4] was “slightly affected”, the “growth suppression of solid tumor cell lines” value [2] was “sensitive to similar low micromolar concentrations” and the “inhibition of hCMG ATP hydrolysis” value [3] was “potent inhibitor of ATP hydrolysis by the hCMG”.
For `CO[C@@H]1[C@@H](OC(N)=O)[C@@H](O)[C@H](Oc2ccc3c(O)c(NC(=O)c4ccc(O)c(CC=C(C)C)c4)c(=O)oc3c2C)OC1(C)C` [novobiocin], the “DNA replication (BrdU), early G1 treatment” value (HaCaT cells) was “little effect”, the “DNA replication (BrdU), early S-phase treatment” value (HaCaT cells) was “did not” and the “increase in MCM loading at 12 hrs” value ([1]; treated at 6 hrs (middle G1)) was “not by novobiocin”. The “growth suppression of solid tumor cell lines” value [2] was “largely insensitive” and the “inhibition of hCMG ATP hydrolysis” value [3] was “very little inhibitory effect on the hCMG”.
